Test results: US20080200392A1, “Methods for Treating Parkinson's Disease” (priority 2005, published 2008)
No end group written: not given here.

Legend:
FcγIIb = test: Reverse ELISA: inhibition of PAP immune complex binding to FcγIIb coated plates; conditions: PAP pre-incubated 1 h with peptide, 1 h on FcγIIb coated plates; lower = more inhibition; positive control 1.394
Text: (§1) For this reason, a “reverse ELISA” technique was used to assess binding of the Fc region to ligands that bind to immune complexed IgG Fc. In a reverse ELISA, the enzyme (e.g., HRP) is not covalently conjugated to the Fc portion of the secondary antibody. Rather, a preformed immune complex of peroxidase-rabbit (or mouse) anti-peroxidase IgG (“PAP” complex) is used. […] In these experiments, an Fc CH2-CH3 cleft binding ligand (e.g., purified human C1q) was bound to microwell plates. In the absence of competitor, PAP complexes bound to the immobilized ligand and the reaction between HRP and its substrate produced a signal. This signal was reduced by polypeptides and compounds provided herein that inhibited PAP binding to the immobilized ligand.
(§2) Once the reverse ELISA protocol was established using the C1q assay, the assay was redesigned using FcγIIa, FcγIIb, and FcγIII in place of C1q. Highly purified FcγIIa, FcγIIb and FcγIII were immunoabsorbed onto plastic microwells. After optimizing the FcγR reverse ELISA system, simple competitive inhibition experiments using polypeptides provided herein were conducted to investigate their ability to inhibit binding of immune complexes to purified FcγR.
(§3) Falcon microtiter plates were coated with 1:10 dilutions of highly purified FcγIIa, FcγIIb and FcγIII and incubated for 24 hours. The plates were washed and then blocked with 5×BSA blocking solution (Alpha Diagnostic International, San Antonio, Tex.) for 24 hours. PAP immune complexes were formed as described above. PAP (100 μl) were pre-incubated with 100 μl of peptide for one hour. PAP/peptide mixtures were added to the FcγR coated plates and incubated for one hour. After washing, plates were incubated with ABTS substrate for 15 minutes and read at 405 nm.

human C1q = test: Reverse ELISA: inhibition of PAP immune complex binding to C1q coated plates; conditions: for OD 405 nm: PAP pre-incubated 1 h with peptide or C1q, 30 min on C1q coated plates, lower OD = more inhibition, positive control 2.355; for inhibition of C1q binding, ranking in words: among the peptides of Table 1
Text: as §1
PAP complexes were formed mixing 2 μl of rabbit anti-peroxidase (Sigma Chemicals, St. Louis, Mo.) with 50 μl of peroxidase (Sigma-Aldrich, St. Louis, Mo.) in 1 ml distilled water. PAP (100 μl) were pre-incubated with 100 μl of peptide for one hour, 100 μl were pre-incubated with 100 μl of peptide or human C1q (Quidel Corp., San Diego, Calif.) for one hour. The C1q/PAP and peptide/PAP mixtures (100 μl) were incubated with C1q coated plates for 30 minutes. After washing, plates were incubated with ATBS (Quidel Corp.) for 15 minutes and read at 405 nm.

FcγIII = test: Reverse ELISA: inhibition of PAP immune complex binding to FcγIII coated plates; conditions: PAP pre-incubated 1 h with peptide, 1 h on FcγIII coated plates; lower = more inhibition; positive control 1.588
Text: as §1, §2, §3

FcγIIa = test: Reverse ELISA: inhibition of PAP immune complex binding to FcγIIa coated plates; conditions: PAP pre-incubated 1 h with peptide, 1 h on FcγIIa coated plates; lower = more inhibition; positive control 1.599
Text: as §1, §2, §3

FcR = test: FcγR reverse ELISA, overall statement on FcR binding to PAP; conditions: among the peptides of Table 2
Procedure: as §2, §3

IgG Fc = IgG Fc (Homo sapiens, UniProt P01857); test: Alanine substitution effect on binding of SEQ ID NO:16 to IgG Fc; conditions: alanine substitution of SEQ ID NO:16 Val-13 or Trp-14
Text: The indole ring of Trp-14 in SEQ ID NO:16 has a hydrophobic interaction with IgG Fc His-435. SEQ ID NO:16 also has hydrophobic packing with IgG Fc Met-252, Ile-253, Ser-254, His-435, and Tyr-436. Alanine substitution of IgG Fc Asn-434, His-435, or Tyr-436 disrupts binding (ΔΔG≧1.5 kcal/mol). Similarly, alanine substitution of SEQ ID NO:16 Val-13 or Trp-14 results in disruption of binding (ΔΔG≧2.0 kcal/mol).

human wt α-synuclein = test: Reverse ELISA: inhibition of immune complexed IgG (PAP) binding to wt α-synuclein; conditions: for Wt α-synuclein (read at 405 nm): PAP pre-incubated 1 h with peptide
Procedure: PAP complexes were formed mixing 2 μl of rabbit anti-peroxidase (Sigma) with 50 μl of peroxidase (Sigma) in 1 ml distilled water. PAP (100 μl) were pre-incubated with 100 μl of peptide for one hour. Control PAP (200 μl) also was incubated for one hour. 100 μl of either PAP or PAP/peptide was added to Falcon microtiter plates that had been coated for 24 or 48 hours with 167 μg/ml human wt α-synuclein (Sigma-Aldrich), and the plates were incubated for 60 minutes. After washing, plates were incubated with ATBS for 30 minutes and then read at 405 nm.

[1] = target: human wt α-synuclein (Sigma-Aldrich) (human) (UniProt P37840); test: reverse ELISA: PAP without competitor on α-synuclein-coated plate (taken as the 24 h coating)
highly purified FcγIIb = test: reverse ELISA: PAP without competitor on FcγIIb-coated plate
highly purified FcγIII = test: reverse ELISA: PAP without competitor on FcγIII-coated plate
highly purified FcγIIa = test: reverse ELISA: PAP without competitor on FcγIIa-coated plate
Sequence of highly purified FcγIIa (P12318 34-317): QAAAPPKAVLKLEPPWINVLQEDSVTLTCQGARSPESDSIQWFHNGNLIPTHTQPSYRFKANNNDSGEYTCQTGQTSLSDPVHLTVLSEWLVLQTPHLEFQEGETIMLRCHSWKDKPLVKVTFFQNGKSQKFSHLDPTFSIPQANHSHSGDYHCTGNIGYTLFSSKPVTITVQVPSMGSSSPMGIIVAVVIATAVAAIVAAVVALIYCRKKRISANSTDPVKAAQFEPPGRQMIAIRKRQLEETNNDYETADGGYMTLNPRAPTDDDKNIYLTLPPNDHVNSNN

[2] = target: preformed immune complex of peroxidase-rabbit anti-peroxidase IgG (PAP complex) (rabbit; horseradish) (UniProt P00433); test: reverse ELISA competition: PAP pre-incubated with peptide, then on C1q-coated plate; signal is PAP bound to C1q (competitor: immobilized human C1q)
Sequence of preformed immune complex of peroxidase-rabbit anti-peroxidase IgG (PAP complex) (rabbit; horseradish) (P00433 31-338, one chain of several): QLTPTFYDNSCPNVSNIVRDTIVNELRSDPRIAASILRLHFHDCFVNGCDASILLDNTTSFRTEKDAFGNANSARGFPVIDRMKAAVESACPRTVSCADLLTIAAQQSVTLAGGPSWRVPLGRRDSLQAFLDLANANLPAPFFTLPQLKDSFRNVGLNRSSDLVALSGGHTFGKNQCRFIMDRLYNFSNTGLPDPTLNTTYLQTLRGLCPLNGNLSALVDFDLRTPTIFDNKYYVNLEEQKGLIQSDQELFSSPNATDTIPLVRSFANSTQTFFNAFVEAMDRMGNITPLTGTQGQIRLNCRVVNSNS

[3] = target: preformed immune complex of peroxidase-rabbit anti-peroxidase IgG (PAP complex) (rabbit; horseradish) (UniProt P00433); test: reverse ELISA competition: PAP pre-incubated with peptide, then on FcγIII-coated plate (competitor: immobilized FcγIII)
[4] = target: preformed immune complex of peroxidase-rabbit anti-peroxidase IgG (PAP complex) (rabbit; horseradish) (UniProt P00433); test: reverse ELISA competition: PAP pre-incubated with peptide, then on FcγIIb-coated plate (competitor: immobilized FcγIIb)
[5] = target: preformed immune complex of peroxidase-rabbit anti-peroxidase IgG (PAP complex) (rabbit; horseradish) (UniProt P00433); test: reverse ELISA competition: PAP pre-incubated with peptide, then on FcγIIa-coated plate (competitor: immobilized FcγIIa)
[6] = target: preformed immune complex of peroxidase-rabbit anti-peroxidase IgG (PAP complex) (rabbit; horseradish) (UniProt P00433); test: reverse ELISA competition: PAP pre-incubated with peptide, then on plate coated 48 h with human wt α-synuclein (competitor: immobilized α-synuclein)
[7] = target: preformed immune complex of peroxidase-rabbit anti-peroxidase IgG (PAP complex) (rabbit; horseradish) (UniProt P00433); test: reverse ELISA competition: PAP pre-incubated with peptide, then on plate coated 24 h with human wt α-synuclein (competitor: immobilized α-synuclein)
[8] = plates coated 24 h with 167 μg/ml α-synuclein, positive control 1.433
[9] = plates coated 48 h with 167 μg/ml α-synuclein, positive control […]

Sequence of preformed immune complex of peroxidase-rabbit anti-peroxidase IgG (PAP complex) (P00433 31-338, one chain of several): as above

| Molecule | OD 405 nm [2] [OD 405 nm] | OD 405 nm [3] [OD 405 nm] | OD 405 nm [4] [OD 405 nm] | OD 405 nm [5] [OD 405 nm] | FcγIIb (read at 405 nm) (FcγIIb) | OD 405 nm (human C1q) | FcγIII (read at 405 nm) (FcγIII) | FcγIIa (read at 405 nm) (FcγIIa) | other results |
| --- | --- | --- | --- | --- | --- | --- | --- | --- | --- |
| APPCAWHLGELVWCT |  |  |  |  | 0.562 | 1.148 | 0.530 | 0.658 |  |
| APPDCAWHLGELVWCT |  |  |  |  | 0.496 | 0.389 | 0.670 | 0.509 | inhibition of C1q binding, ranking in words (human C1q): greatest inhibition of C1q binding, almost equaling C1q itself; inhibition of FcR binding to PAP, ranking in words (FcR): greatest inhibition of FcR binding to PAP; ΔΔG, disruption of binding (IgG Fc): ≥ 8.37 kJ/mol; inhibition of α-synuclein binding to PAP, ranking in words (human wt α-synuclein; among the peptides of Table 3): greatest inhibition of α-synuclein binding to PAP; Wt α-synuclein (read at 405 nm) (human wt α-synuclein; [8]): 0.088; Wt α-synuclein (read at 405 nm) (human wt α-synuclein; [9]): 0.136 |
| preformed immune complex of peroxidase-rabbit anti-peroxidase IgG (PAP complex) (from UniProt P00433 31-338) (antibody) |  |  |  |  |  |  |  |  | OD 405 nm [1]: 1.43 OD 405 nm; OD 405 nm (highly purified FcγIIb): 1.39 OD 405 nm; OD 405 nm (highly purified FcγIII): 1.59 OD 405 nm; OD 405 nm (highly purified FcγIIa): 1.6 OD 405 nm |
| DCAFHLGELVWCT |  |  |  |  | 0.510 | 0.859 | 0.810 | 0.660 |  |
| APPCARHLGELVWCT |  |  |  |  | 0.768 | 0.567 | 0.709 | 0.956 | inhibition of C1q binding, ranking in words (human C1q): next best result |
| APPCAFHLGELVWCT (not fully specified; cysteine pairing not given here) |  |  |  |  | 0.380 | 0.983 | 0.880 | 0.605 |  |
| DCAWHLGELVWCT |  |  |  |  | 0.532 | 1.100 | 0.741 | 0.561 | Wt α-synuclein (read at 405 nm) (human wt α-synuclein; [8]): 0.111; Wt α-synuclein (read at 405 nm) (human wt α-synuclein; [9]): 0.152 |

More lines, main results first:

| OD 405 nm [2] [OD 405 nm] | OD 405 nm [3] [OD 405 nm] | OD 405 nm [4] [OD 405 nm] | OD 405 nm [5] [OD 405 nm] | Molecule | FcγIIb (read at 405 nm) (FcγIIb) | OD 405 nm (human C1q) | FcγIII (read at 405 nm) (FcγIII) | FcγIIa (read at 405 nm) (FcγIIa) | other results |
| --- | --- | --- | --- | --- | --- | --- | --- | --- | --- |
| 0.859 | 0.81 | 0.51 | 0.66 | DCAFHLGELVWCT [… (SEQ ID NO:3)] |  |  |  |  |  |
| 0.983 | 0.88 | 0.38 | 0.605 | APPCAFHLGELVWCT (not fully specified; cysteine pairing not given here) [… (SEQ ID NO:15)] |  |  |  |  |  |
| 0.389 | 0.67 | 0.496 | 0.509 | APPDCAWHLGELVWCT [… (SEQ ID NO:16)] |  |  |  |  | OD 405 nm [6]: 0.136 OD 405 nm; OD 405 nm [7]: 0.088 OD 405 nm |
| 1.15 | 0.53 | 0.562 | 0.658 | APPCAWHLGELVWCT (not fully specified; cysteine pairing not given here) [… (SEQ ID NO:13)] |  |  |  |  |  |
| 0.567 | 0.709 | 0.768 | 0.956 | APPCARHLGELVWCT (not fully specified; cysteine pairing not given here) [… (SEQ ID NO:14)] |  |  |  |  |  |
